Measured values published in publication PMC11223215, “Metronidazole Interaction with Cu^2+ and Zn^2+: Speciation Study in Aqueous Solution and Biological Activity Evaluation” (ACS Omega, 2024).
In brackets after ≈: the same amount, converted by molar mass. Read-outs that look alike come from different tables or passages of the source.

Assays:
[1] = system: Staphylococcus aureus; assay: In vitro activity against S. aureus; format: cell-based; settings: resazurin
Procedure: (§1) Briefly, S. aureus and E. coli were cultured in MHT (Mueller Hinton Broth) and maintained on TSA (Tryptone Soy Agar). T. cruzi, Tulahuen CL2 galactosidase strain (nifurtimox- sensitive), was maintained on MRC-5SV2 (human lung fibroblast) cells in MEM medium, supplemented with 200 mmol L^–1L-glutamine, 16.5 mmol L^–1 NaHCO3, and 5% inactivated fetal calf serum. The T. b. brucei Squib 427 strain (suramine-sensitive) and T. b. rhodesiense STIB-900 strain were maintained in Hirumi’s Modified Iscove’s medium-9 (HMI-9) medium, supplemented with 10% inactivated fetal calf serum. MRC-5SV2 cells were cultured in MEM + Earle’s salts-medium, supplemented with 2 mmol L^–1L-glutamine, 16.5 mmol L^–1 NaHCO3, and 5% inactivated fetal calf serum. All cultures were incubated at 37 °C under an atmosphere of 5% CO2.
(§2) The assays were performed at 37 °C in sterile 96-well microtiter plates, each well containing 10 μL of aqueous compound together with a bacterial/fungal/MRC-5 inoculum (190 μL; 5 × 10^3 CFU/mL). The compounds were tested at 64, 16, 4, 1, and 0.25 μ-mol L^–1. Bacterial/fungal/MRC-5 growth was compared to untreated-control wells (100% growth) and medium-control wells (0% cell growth). After 3 days of incubation, 50 μL of resazurin was added in each well. After 30 min at 37 °C, the fluorescence was measured at λex = 550 nm and λem = 590 nm. The results are expressed as % reduction in cell growth/viability compared to control wells, and IC50 values were determined.

[2] = system: Escherichia coli; assay: In vitro activity against E. coli; format: cell-based; settings: resazurin
Procedure: as §1, §2

[3] = system: Leishmania infantum (intracellular amastigotes); assay: In vitro activity against L. infantum; format: cell-based
[4] = system: Trypanosoma cruzi Tulahuen CL2 amastigote stage; assay: In vitro activity against T. cruzi; format: cell-based; settings: T. cruzi Tulahuen CL2 amastigotes on MRC-5 cells, 7 days
Procedure: as §1
The assay was performed at 37 °C under an atmosphere of 5% CO2 in sterile 96-well microtiter plates, each well containing 10 μL of the aqueous compound together with MRC-5 cell/parasite inoculum (190 μL; 4 × 10^3 cells/well + 4 × 10^4 parasites/well). The compounds were tested at 64, 16, 4, 1, and 0.25 μmol L^–1. Parasite growth was compared to that of untreated-infected controls and uninfected controls. After 7 days of incubation, parasite burdens were assessed after adding the substrate CPRG [chlorophenolred β-D-galactopyranoside; 50 μL/well of a solution of CPRG (15.2 mg); and Nonidet (250 μL) in PBS (100 mL)]. The sample was analyzed spectrophotometrically at 540 nm after 4 h. The results were expressed as % reduction in parasite burden compared to control wells, and an IC50 was calculated.

[5] = system: Trypanosoma brucei brucei Squib-427 strain, suramin-sensitive, trypomastigote stage; assay: In vitro activity against T. b. brucei; format: cell-based; settings: T. b. brucei Squib-427 trypomastigotes, 3 days, resazurin
Procedure: as §1
(§3) The assay was performed at 37 °C under an atmosphere of 5% CO2 in sterile 96-well microtiter plates, each well containing the aqueous compound (10 μL) dilution together with the parasite suspension [190 μL; 1.5 × 10^3 parasites/well (T. b. brucei) or 4 × 10^3 parasites/well (T. rhodesiense)]. The compounds were tested at 64, 16, 4, 1, and 0.25 μmol L^–1. Parasite growth was compared to untreated-infected controls and uninfected controls. After 3 days of incubation, parasite growth was assessed fluorimetrically after addition of resazurin [50 μL; 50 μg/mL in phosphate buffer] to each well. After 6 h (T. b. rhodesiense) or 24 h (T. b. brucei) at 37 °C, fluorescence was measured (λex 550 nm, λem 590 nm). The results were expressed as % reduction in parasite growth/viability compared to control wells, and an IC50 was calculated.

[6] = system: Trypanosoma brucei rhodesiense STIB900 strain, drug susceptible, trypomastigote stage; assay: In vitro activity against T. b. rhodesiense; format: cell-based; settings: T. b. rhodesiense STIB900 trypomastigotes, 3 days, resazurin
Procedure: as §1, §3

[7] = system: Candida albicans; assay: In vitro activity against C. albicans; format: cell-based
Procedure: as §2

[8] = system: Aspergillus fumigatus; assay: In vitro activity against A. fumigatus; format: cell-based
Procedure: as §2

[9] = system: MRC-5 human fetal lung fibroblasts; assay: Cytotoxicity on MRC-5 cells; format: cell-based; settings: MRC-5 human fetal lung fibroblasts cytotoxicity
Procedure: as §2, with “Briefly, S. aureus and E. coli were cultured in MHT (Mueller Hinton Broth) and maintained on TSA (Tryptone Soy Agar). […] The T. b. brucei Squib 427 strain (suramine-sensitive) and T. b. rhodesiense STIB-900 strain were maintained in Hirumi’s Modified Iscove’s medium-9 (HMI-9) medium, supplemented with 10% inactivated fetal calf serum. […] All cultures were incubated at 37 °C under an atmosphere of 5% CO2. The assays” for “The assays”

[10] = system: Primary peritoneal mouse macrophages (PMM); assay: Cytotoxicity on primary peritoneal mouse macrophages; format: cell-based
[11] = Cytotoxicity on MRC-5 cells; format: cell-based; settings: MRC-5 SV2 human fetal lung fibroblasts; MRC-5 human fetal lung fibroblasts cytotoxicity
Procedure: as §2, with “Briefly, S. aureus and E. coli were cultured in MHT (Mueller Hinton Broth) and maintained on TSA (Tryptone Soy Agar). […] The T. b. brucei Squib 427 strain (suramine-sensitive) and T. b. rhodesiense STIB-900 strain were maintained in Hirumi’s Modified Iscove’s medium-9 (HMI-9) medium, supplemented with 10% inactivated fetal calf serum. […] All cultures were incubated at 37 °C under an atmosphere of 5% CO2. The assays” for “The assays”

[12] = Cytotoxicity on primary peritoneal mouse macrophages; format: cell-based; settings: primary peritoneal mouse macrophages (PMM)
[13] = Sequestering ability of MNZ (pL0.5) toward Cu2+; format: physicochemical; settings: toward Cu^2+, t = 37 °C, I = 0.15 mol L^–1, pH = 7.4
Text: (§4) The tendency of a ligand to complex a free metal cation in solution to form metal–ligand species is expressed as the sequestering ability. To describe the sequestering ability of a ligand toward a certain metal cation, however, the mere knowledge of formation constants is not enough as it is necessary to consider all the possible interactions that both ligand and metal cation may have with all the species present in solution. In order to define it quantitatively, the empirical parameter pL0.5 was introduced, which represents the cologarithm of the ligand concentration necessary to sequester 50% of the metal cation in traces.[34],[35] The calculation is based on the following Boltzmann-type sigmoidal equation: [drawing 33] 3 where χ is the sum of molar fractions of the different complex species and pL is the cologarithm of the total ligand concentration.
(§5) A comparison between the sequestering ability of MNZ toward Zn^2, Cu^2+, and Ca^2+ (one of the main metal cations present in human body and previously studied in our recent work[30]) was evaluated under physiological conditions.

[14] = Sequestering ability of MNZ (pL0.5) toward Zn2+; format: physicochemical; settings: toward Zn^2+, t = 37 °C, I = 0.15 mol L^–1, pH = 7.4
Text: as §4, §5

[15] = Sequestering ability of MNZ (pL0.5) toward Ca2+; format: physicochemical; settings: toward Ca^2+, t = 37 °C, I = 0.15 mol L^–1, pH = 7.4
Text: as §4, §5

[16] = Staphylococcus aureus, read-out: IC50
[17] = Escherichia coli, read-out: IC50
[18] = Leishmania infantum, read-out: IC50
[19] = Trypanosoma cruzi, MRC5, 168 h, read-out: IC50
[20] = Trypanosoma brucei, 72 h, read-out: IC50
[21] = Candida albicans, read-out: IC50

Molecule `C[C@H]1c2cccc(O)c2C(=O)C2=C(O)[C@]3(O)C(=O)C(C(N)=O)=C(O)[C@@H](N(C)C)[C@@H]3[C@@H](O)[C@@H]21` [Doxycycline] has an IC50 [1, 16] of 0.08 µg/mL (≈ 0.18 µM) and an IC50 [2, 17] of 0.64 µg/mL (≈ 1.44 µM).
In the case of `CCCCCCCCCCCCCCCCOP(=O)([O-])OCC[N+](C)(C)C` [Miltefosine], the IC50 [3, 18] is reported as 2.05 µg/mL (≈ 5.03 µM).
With `[Cl][Cu][Cl]` [Cu^2+] the IC50 [4] was >2.42 µg/mL, the IC50 [5] was 0.75 µg/mL and the IC50 [6] was 0.94 µg/mL. For the same molecule, the IC50 [1] was >2.42 µg/mL, the IC50 [2] was >2.42 µg/mL and the IC50 [3] was >2.42 µg/mL. The IC50 [7] was >2.42 µg/mL, the IC50 [8] was >2.42 µg/mL and the CC50 [9] was >2.42 µg/mL. For the same molecule, the CC50 [10] was >2.42 µg/mL.
With `[Cl-].[Cl-].[Zn+2]` [Zn^2+] the IC50 [4] was >1.79 µg/mL, the IC50 [5] was >1.79 µg/mL and the IC50 [6] was >1.79 µg/mL. The IC50 [1] was >1.79 µg/mL, the IC50 [2] was >1.79 µg/mL and the IC50 [3] was >1.79 µg/mL. The IC50 [7] was >1.79 µg/mL, the IC50 [8] was >1.79 µg/mL and the CC50 [9] was >1.79 µg/mL. The CC50 [10] was >1.79 µg/mL.
In the case of `O=C(Cn1ccnc1[N+](=O)[O-])NCc1ccccc1` [Benznidazol], the IC50 [4, 19] is reported as 0.43 µg/mL (≈ 1.65 µM).
For `Cc1ccc(C(=O)Nc2ccc(S(=O)(=O)O)c3cc(S(=O)(=O)O)cc(S(=O)(=O)O)c23)cc1NC(=O)c1cccc(NC(=O)Nc2cccc(C(=O)Nc3cc(C(=O)Nc4ccc(S(=O)(=O)O)c5cc(S(=O)(=O)O)cc(S(=O)(=O)O)c45)ccc3C)c2)c1` [Suramine], the IC50 [5, 20] was 0.03 µg/mL (≈ 0.0231 µM) and the IC50 [6, 20] was 0.07 µg/mL (≈ 0.054 µM).
For `Cc1ncc([N+](=O)[O-])n1CCO` [MNZ(L), 2-methyl-5-nitro-1H-imidazole-1-ethanol], the IC50 [4, 19] was > 5.64 µg/mL, the IC50 [5, 20] was > 5.64 µg/mL and the IC50 [6, 20] was > 5.64 µg/mL. For the same molecule, the IC50 [1, 16] was > 5.64 µg/mL, the IC50 [2, 17] was > 5.64 µg/mL and the IC50 [3, 18] was > 5.64 µg/mL. The IC50 [7, 21] was > 5.64 µg/mL, the IC50 ([8]; Aspergillus fumigatus, read-out: IC50) was > 5.64 µg/mL and the CC50 at 3 days [11] was > 5.64 µg/mL. For the same molecule, the CC50 [12] was > 5.64 µg/mL, the pL0.5 [13] was 4.3 and the pL0.5 [14] was 3.1. For the same molecule, the pL0.5 [15] was 1.9.
For `Nc1[nH]c(=O)ncc1F` [Flucytosine], the IC50 [7, 21] was 0.51 µg/mL (≈ 3.95 µM).
